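Five concentrations, 48 hours, 96-well plates. GI50 is the concentration that inhibits growth by half.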 Active and inactive are the calls of the source. Rule as the data show it: active = GI50 up to about 1.1 µM and inactive = higher.
What was measured:
Experiment in all cases: inhibition of tumour cell growth, NCI panel, 48 h
ACHN = test system: ACHN
Malme-3M = test system: Malme-3M
MDA-N = test system: MDA-N
SN12C = test system: SN12C
OVCAR-4 = test system: OVCAR-4
HCC 2998 = test system: HCC 2998
EKVX = test system: EKVX
SNB-75 = test system: SNB-75
HCT-116 = test system: HCT-116
OVCAR-3 = test system: OVCAR-3
T47D = test system: T47D
A498 = test system: A498
PC-3 = test system: PC-3
OVCAR-5 = test system: OVCAR-5
SF-295 = test system: SF-295
UACC-62 = test system: UACC-62
CCRF-CEM = test system: CCRF-CEM
SR = test system: SR
DU-145 = test system: DU-145

Structure (SMILES) | GI50 (ACHN) | GI50 (Malme-3M) | GI50 (MDA-N) | GI50 (SN12C) | GI50 (OVCAR-4) | GI50 (HCC 2998) | GI50 (EKVX) | GI50 (SNB-75) | GI50 (HCT-116) | GI50 (OVCAR-3) | GI50 (T47D) | GI50 (A498) | GI50 (PC-3) | GI50 (OVCAR-5) | GI50 (SF-295) | GI50 (UACC-62) | GI50 (CCRF-CEM) | GI50 (SR) | GI50 (DU-145)
CN(C)S(=O)(=O)n1ccnc1 | > 100 µM (inactive) | > 100 µM (inactive) | > 100 µM (inactive) | > 100 µM (inactive) | > 100 µM (inactive) | > 100 µM (inactive) | > 100 µM (inactive) | > 100 µM (inactive) | > 100 µM (inactive) | > 100 µM (inactive) | > 100 µM (inactive) | > 100 µM (inactive) | > 100 µM (inactive) | > 100 µM (inactive) | > 100 µM (inactive) |  |  |  | 
COc1ccc(C(N)=O)cc1/N=N/N(C)C | > 100 µM (inactive) | > 100 µM (inactive) |  | > 100 µM (inactive) | > 100 µM (inactive) | > 100 µM (inactive) | > 100 µM (inactive) | > 100 µM (inactive) | > 100 µM (inactive) | > 100 µM (inactive) |  | > 100 µM (inactive) |  | > 100 µM (inactive) | > 100 µM (inactive) | > 100 µM (inactive) | > 100 µM (inactive) | 39.8 µM (inactive) | 
O=C(CCn1[nH]c(=O)c(Cl)c(Cl)c1=O)NOCCCc1ccccc1 | > 100 µM (inactive) | > 100 µM (inactive) |  | > 100 µM (inactive) | > 100 µM (inactive) | > 100 µM (inactive) | > 100 µM (inactive) | > 100 µM (inactive) | > 100 µM (inactive) | > 100 µM (inactive) |  | > 100 µM (inactive) |  | > 100 µM (inactive) | > 100 µM (inactive) | > 100 µM (inactive) | > 100 µM (inactive) | > 100 µM (inactive) | 
O=C1C=CC(CC(=O)c2ccc3ccccc3c2)O1 (configuration not stated) | 37.3 µM (inactive) | 34.3 µM (inactive) |  | 18.8 µM (inactive) | 24.9 µM (inactive) | 17.2 µM (inactive) | > 100 µM (inactive) | 37.8 µM (inactive) | 17.9 µM (inactive) | 25.2 µM (inactive) |  | 20 µM (inactive) |  | 25.4 µM (inactive) | > 100 µM (inactive) | 18.8 µM (inactive) | 23.2 µM (inactive) | 30.3 µM (inactive) | 
CCc1c(-c2ccc(OC)cc2)oc(OC)c(C)c1=O | 42.3 µM (inactive) |  |  | > 100 µM (inactive) | 85.9 µM (inactive) | > 100 µM (inactive) | 63.4 µM (inactive) | 33.2 µM (inactive) | 55.1 µM (inactive) | 62.8 µM (inactive) | 45 µM (inactive) | 68.9 µM (inactive) | 57.4 µM (inactive) | > 100 µM (inactive) | > 100 µM (inactive) | 64 µM (inactive) | 41 µM (inactive) |  | > 100 µM (inactive)
CCCCOc1c(C(=O)O)cc(Br)cc1C(=O)O | > 100 µM (inactive) | > 100 µM (inactive) | > 100 µM (inactive) | > 100 µM (inactive) | > 100 µM (inactive) | > 100 µM (inactive) | > 100 µM (inactive) | > 100 µM (inactive) | 91.6 µM (inactive) | > 100 µM (inactive) | > 100 µM (inactive) | > 100 µM (inactive) | > 100 µM (inactive) | > 100 µM (inactive) | > 100 µM (inactive) |  |  |  | 
O=c1oc2ccc3ccccc3c2cc1-c1cn2c(n1)sc1ccccc12 | > 100 µM (inactive) | > 100 µM (inactive) | > 100 µM (inactive) |  | > 100 µM (inactive) | > 100 µM (inactive) | 90.8 µM (inactive) | > 100 µM (inactive) | > 100 µM (inactive) | > 100 µM (inactive) |  | > 100 µM (inactive) | > 100 µM (inactive) | > 100 µM (inactive) | > 100 µM (inactive) | 92.7 µM (inactive) | > 100 µM (inactive) |  | > 100 µM (inactive)
COc1cccc(CN(C(=O)/C=C\Sc2ccccc2)C(C)(C)C)c1 | > 100 µM (inactive) |  | 74 µM (inactive) | > 100 µM (inactive) | 96.8 µM (inactive) | > 100 µM (inactive) | 90.6 µM (inactive) |  | 33 µM (inactive) | 52.5 µM (inactive) | 17.6 µM (inactive) | > 100 µM (inactive) | 33 µM (inactive) | > 100 µM (inactive) | > 100 µM (inactive) | > 100 µM (inactive) | 0.435 µM (active) |  | > 100 µM (inactive)
CCCCCCCCCCCCCCCC(=O)OCCOCCOCCOCc1ccccc1 | > 100 µM (inactive) | > 100 µM (inactive) |  | > 100 µM (inactive) | > 100 µM (inactive) |  | > 100 µM (inactive) | 65.3 µM (inactive) | > 100 µM (inactive) | > 100 µM (inactive) |  | > 100 µM (inactive) |  | > 100 µM (inactive) | 26 µM (inactive) | 36.1 µM (inactive) |  |  | 
CC1=N/C(=C\c2ccc(N)cc2)C(=O)N1Nc1nnc(NN2C(=O)/C(=C/c3ccc(N)cc3)N=C2C)c2ccccc12 | > 100 µM (inactive) |  |  | 96.2 µM (inactive) | 33 µM (inactive) |  | > 100 µM (inactive) | 5.05 µM (inactive) | > 100 µM (inactive) |  |  | > 100 µM (inactive) |  | > 100 µM (inactive) | 26.6 µM (inactive) | 54.5 µM (inactive) | 18.6 µM (inactive) | 30.1 µM (inactive) | 
CC1(C)CN(c2ccccc2)C(=O)C1OC(=O)[C@@]1(C)C[C@@H]2C=C[C@H]1C2 (some centres not stated) | 34.5 µM (inactive) | 10.9 µM (inactive) | 18.7 µM (inactive) | 21.3 µM (inactive) | 18.1 µM (inactive) |  | 28.4 µM (inactive) | 34.3 µM (inactive) | 19.5 µM (inactive) | 39.4 µM (inactive) | 32.7 µM (inactive) | 23.8 µM (inactive) | 30 µM (inactive) | 28.1 µM (inactive) | 24.5 µM (inactive) | 18 µM (inactive) | 23.3 µM (inactive) |  | 87.5 µM (inactive)
CC(=O)OC12c3ccccc3-c3ccccc3C1C(C(=O)O)C2C(=O)O (configuration not stated) | > 10 µM (inactive) | 1.2 µM (inactive) |  | > 10 µM (inactive) | > 10 µM (inactive) | > 10 µM (inactive) | > 10 µM (inactive) |  |  | > 10 µM (inactive) | > 10 µM (inactive) | > 10 µM (inactive) | > 10 µM (inactive) | > 10 µM (inactive) | > 10 µM (inactive) |  | > 10 µM (inactive) | > 10 µM (inactive) | > 10 µM (inactive)
Oc1cc(-c2ccc3ccccc3c2)nc2ncc(Cl)cc12 | 4.9 µM (inactive) | 4.05 µM (inactive) |  | 9.06 µM (inactive) | 6.43 µM (inactive) | 10.2 µM (inactive) | 14.5 µM (inactive) | 1.98 µM (inactive) |  |  | 18.8 µM (inactive) | 12.1 µM (inactive) |  | 64.9 µM (inactive) |  | 3.66 µM (inactive) | 3.48 µM (inactive) |  | 11.4 µM (inactive)
